Data reported in paper PMC8688152, “Distinct classes of potassium channels fused to GPCRs as electrical signaling biosensors” (Cell Reports Methods, 2021).

Key:
M2_T-00-37 = biological target: T1, M2_T-00-37 (UniProt P08172+P97438); assay: TEVC recording of M2_T-00-37 ICCR in Xenopus oocytes; assay type: cell-based, human (M2), mouse (TREK-1); conditions: 91 mM K+, Vm = −50 mV, mean ± SEM
T1 construct: M2_T-00-37 with zero deletion in the M2 receptor C terminus (full-length receptor); expressed in transfected cells; host or cells: Xenopus oocytes (mRNA injection)
Method: (§1) Microelectrodes were filled with […]. […] The membrane voltage was clamped to −50 mV.

M2_T-00-40 = biological target: T2, M2_T-00-40 (UniProt P08172+P97438); assay: TEVC recording of M2_T-00-40 ICCR in Xenopus oocytes; assay type: cell-based, human (M2), mouse (TREK-1); conditions: 91 mM K+, Vm = −50 mV, mean ± SEM
T2 construct: full-length (−00) or M2 deleted of its last nine residues (−09) in the indicated ICCRs; expressed in transfected cells; host or cells: Xenopus oocytes (mRNA injection)
Method: as §1

M2_T-00-46 = biological target: T3, M2_T-00-46 (UniProt P08172+P97438); assay: TEVC recording of M2_T-00-46 ICCR in Xenopus oocytes; assay type: cell-based, human (M2), mouse (TREK-1); conditions: 91 mM K+, Vm = −50 mV, mean ± SEM
T3 construct: full-length (−00) or M2 deleted of its last nine residues (−09) in the indicated ICCRs; expressed in transfected cells; host or cells: Xenopus oocytes (mRNA injection); gene synthesized by GeneCust
Method: as §1

M2_T-09-40 = biological target: T4, M2_T-09-40 (UniProt P08172+P97438); assay: TEVC recording of M2_T-09-40 in Xenopus oocytes; assay type: cell-based, human (M2), mouse (TREK-1); conditions: ACh 5 μM
T4 construct: expressed in transfected cells; host or cells: Xenopus oocytes (mRNA injection)
Method: as §1

M2_T-09-43 = biological target: T5, M2_T-09-43 (UniProt P08172+P97438); assay: TEVC recording of M2_T-09-43 in Xenopus oocytes; assay type: cell-based, human (M2), mouse (TREK-1); conditions: ACh 5 μM
T5 construct: expressed in transfected cells; host or cells: Xenopus oocytes (mRNA injection); gene synthesized by ATG:biosynthetics
Method: as §1

M2[T4L]_T-00-43 = assay: TEVC recording of G protein-uncoupled M2[T4L]_T-00-43; assay type: cell-based, human (M2), mouse (TREK-1); conditions: 5 μM ACh
Method: as §1

M2_T(G293E)-00-40 = biological target: T6, M2_T(G293E)-00-40 (UniProt P08172+P97438, G308E); assay type: cell-based, human (M2), mouse (TREK-1); conditions: ACh 5 μM; TEVC, Xenopus oocytes; mean ± SEM
T6 construct: full-length (−00) or M2 deleted of its last nine residues (−09) in the indicated ICCRs; expressed in transfected cells; host or cells: Xenopus oocytes (mRNA injection)
Method: as §1

[1] = biological target: T7, I252T mutant of M2_T-00-40 (UniProt P08172+P97438, I267T); assay type: cell-based, human (M2), mouse (TREK-1)
T7 construct: full-length (−00) or M2 deleted of its last nine residues (−09) in the indicated ICCRs; expressed in transfected cells; host or cells: Xenopus oocytes (mRNA injection)
Method: (§2) Xenopus oocytes were prepared as previously reported ([Moreau et al., 2008]). Briefly, after surgical retrieval, the oocytes were defolliculated by type 1A collagenase. Each oocyte was injected with 50 nl of RNAse-free water containing the desired mRNAs. The mRNA quantities used per oocyte were: ICCR with Kcv, 2.7 ng (M2_Kcv and D2_Kcv) and 2.9 ng (OXTR_Kcv); ICCR with mTREK-1, 4.2 ng; ICCR with Kir6.2, 4.3 ng; M2, 2.3 ng; D2, 2.2 ng; Kir3.4T, 2.2 ng; Kcv 0.46 ng and mTREK-1, 2.1 ng. Microinjected oocytes were incubated 2 to 3 days at 19°C in modified-Barth's solution (in mM: 1 KCl, 0.82 MgSO4, 88 NaCl, 2.4 NaHCO3, 0.41 CaCl2, 16 HEPES, pH 7.4) supplemented with 100 U.ml^−1 of penicillin and streptomycin and 0.1 mg.mL^−1 of gentamycin. Animal handling and experiments fully conformed to European regulations and were approved by the French Ministry of Higher Education and Research (APAFIS#4420-2016030813053199 v4 to CM). […]
(§3) Two-electrode voltage-clamp (TEVC) recordings were performed automatically with HiClamp robots (MultiChannel Systems). […] Ligand effects were measured in high potassium concentration buffer with the membrane potential clamped to −50 mV and at 19°C.
(§4) Change of potassium current induced by ligand was calculated either with the barium-sensitive currents as a 0-reference for Kcv-based ICCRs or with the currents in ND96 for mTREK-1 ICCRs. […]

[2] = tested on: I252T mutant of M2_T-00-40; assay type: cell-based, human (M2), mouse (TREK-1); conditions: ACh 5 μM; I252T versus WT M2_T-00-40
Method: as §2, §3, §4

[3] = tested on: Kir3.4T (Kir3.4(S143T)) co-expressed with M2_T constructs; assay: G protein activation assay: Kir3.4T co-expressed with M2_T ICCRs (TEVC); assay type: cell-based, Xenopus oocytes; conditions: 5 μM ACh
Method: as §1

unfused Kcv = unfused Kcv (Paramecium bursaria Chlorella virus 1, UniProt Q84568); assay: TEVC controls: unfused Kcv co-expressed with M2, and Kcv alone; assay type: cell-based; conditions: co-expression of unfused M2 and Kcv, and Kcv alone
Method: as §1

M2_Kir6.2-09-25 = tested on: M2_Kir6.2-09-25; set-up: method as in Moreau et al., 2017; conditions: Kir6.2 ICCRs; ref Moreau et al., 2017; read-out: IC50 observed with Kir6.2 ICCRs; cited from earlier work

For CC(=O)OCC[N+](C)(C)C [ACh, acetylcholine], the “activation: % of current change induced by ACh 5 μM on M2_T-00-37” value (M2_T-00-37) was 3.9% ± 0.9%, the “activation: % of current change induced by ACh 5 μM on M2_T-00-40” value (M2_T-00-40) was 20.2% ± 3.5% and the “activation: % of current change induced by ACh 5 μM on M2_T-00-46” value (M2_T-00-46) was 35.2% ± 1.6%. For the same molecule, the “regulation of M2_T-09-40 by ACh” value (M2_T-09-40) was “no significant regulation”, the “regulation of M2_T-09-43 by ACh” value (M2_T-09-43) was “no significant regulation” and the “activation of G protein-uncoupled M2[T4L]_T-00-43 by ACh” value (M2[T4L]_T-00-43) was “still activated by ACh with the same amplitude as WT”. For the same molecule, the “activation induced by ACh on the hyperactive G293E mutant of M2_T-00-40” value (M2_T(G293E)-00-40) was 32.5% ± 3.6%, the “activation induced by ACh on the I252T mutant of M2_T-00-40” value [1] was 84.7% ± 11.2% and the “increase of ACh-induced activation of the I252T mutant compared with the WT counterpart” value [2] was “more than 4 fold”. The “G protein activation (Kir3.4T) by M2_T-09-40 and -09-43” value [3] was “still able to activate Gi/o proteins”, the “activation of Kir3.4T co-expressed with M2_T-00-37, −40, −43 and −46” value ([3]; no significant differences between the four constructs) was “clear activation” and the “regulation of unfused Kcv by ACh” value (unfused Kcv) was “absence of regulation”. The IC50 (M2_Kir6.2-09-25) was 1250 nM.
